We go through 19 compounds from PubChem BioAssay AID328 (DTP/NCI, 2004).

Molecules are shown by their SMILES. Toxic doses and inconclusive results are not listed.

The assay concerns BDF1 mice, P388 leukemia ip, median survival T/C. The assay is described as follows: NCI In Vivo Anticancer Drug Screen. Data for tumor model P388 Leukemia (intraperitoneal) in B6D2F1 (BDF1) mice. Conditions: endpoint: median survival time, higher = longer survival. Put shortly: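 Mice carrying the transplantable tumour receive compound or vehicle. Survival is followed in each arm, and the treated measure is divided by the vehicle measure.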

The mark [1] stands for this setting: dose: 100.0 mg/kg/injection, schedule: Q04DX003 (ip), vehicle: saline with Tween-80.
[2] abbreviates: dose: 50.0 mg/kg/injection, schedule: Q01DX009 (ip), vehicle: saline with Tween-80.
The mark [3] stands for this setting: dose: 100.0 mg/kg/injection, schedule: Q01DX009 (ip), vehicle: saline with Tween-80.
Where [4] appears, read: dose: 200.0 mg/kg/injection, schedule: Q01DX009 (ip), vehicle: saline with Tween-80.
Setting [5] is: dose: 12.5 mg/kg/injection, schedule: Q01DX009 (ip), vehicle: saline.
Where [6] appears, read: dose: 100.0 mg/kg/injection, schedule: Q04DX003 (ip), vehicle: Klucel (hydroxypropylcellulose) (HPC).
Setting [7] is: dose: 200.0 mg/kg/injection, schedule: Q04DX003 (ip), vehicle: Klucel (hydroxypropylcellulose) (HPC).
Setting [8] is: dose: 400.0 mg/kg/injection, schedule: Q04DX003 (ip), vehicle: Klucel (hydroxypropylcellulose) (HPC).
[9] abbreviates: dose: 200.0 mg/kg/injection, schedule: Q04DX003 (ip), vehicle: saline with Tween-80.
Setting [10] is: dose: 400.0 mg/kg/injection, schedule: Q04DX003 (ip), vehicle: saline with Tween-80.

For `O=[N+]([O-])c1ccc(N(CCO)CCO)c2nonc12`, the T/C runs as follows: (dose: 15.0 mg/kg/injection, schedule: Q01DX009 (ip), vehicle: saline with Tween-80) 101 % of control; (dose: 25.0 mg/kg/injection, schedule: Q04DX003 (ip), vehicle: saline with Tween-80) 114 % of control; (dose: 30.0 mg/kg/injection, schedule: Q01DX009 (ip), vehicle: saline with Tween-80) 100 % of control; (dose: 50.0 mg/kg/injection, schedule: Q04DX003 (ip), vehicle: saline with Tween-80) 97 % of control; (dose: 60.0 mg/kg/injection, schedule: Q01DX009 (ip), vehicle: saline with Tween-80) 101 % of control; under setting [1], 98 % of control.

Take `O=C(/C=C/c1ccccc1Cl)NCC(O)CO` (centres undefined): the T/C runs as follows: under setting [2], 100 % of control; under setting [3], 100 % of control; under setting [4], 95 % of control; (dose: 400.0 mg/kg/injection, schedule: Q01DX009 (ip), vehicle: other) 91 % of control; (dose: 400.0 mg/kg/injection, schedule: Q01DX009 (ip), vehicle: saline with Tween-80) 90 % of control.

Take `C(=C(\Cc1ccccc1)c1ccccc1)/c1ccccc1`: the T/C (dose: 50.0 mg/kg/injection, schedule: Q01DX005 (ip), vehicle: saline with Tween-80) was 99 % of control; the T/C (dose: 100.0 mg/kg/injection, schedule: Q01DX005 (ip), vehicle: saline with Tween-80) is 103 % of control; the T/C (dose: 200.0 mg/kg/injection, schedule: Q01DX005 (ip), vehicle: saline with Tween-80) is 103 % of control.

Regarding `CC(=O)c1ccc2c(c1)N(CCCN1CCN(CCO)CC1)c1ccccc1S2`, the T/C runs as follows: (dose: 3.12 mg/kg/injection, schedule: Q01DX009 (ip), vehicle: saline) 107 % of control; (dose: 6.25 mg/kg/injection, schedule: Q01DX009 (ip), vehicle: saline) 96 % of control; under setting [5], 94 % of control.

As for `Cc1cc(C)c(-n2c(-c3ccc(Cl)cc3)nnc2-c2ccc(Br)cc2)c(C)c1`, the T/C was 104 % of control under setting [6], 100 % of control under setting [7] and 90 % of control under setting [8].

Turning to `COc1ccc(/C=C2\N=C(c3ccccc3)OC2=O)cc1OC`, the T/C was 90 % of control (dose: 100.0 mg/kg/injection, schedule: Q01DX001 (ip), vehicle: saline); 104 % of control (dose: 200.0 mg/kg/injection, schedule: Q01DX001 (ip), vehicle: saline); 104 % of control (dose: 400.0 mg/kg/injection, schedule: Q01DX001 (ip), vehicle: saline).

Consider `COC1=CC(=O)c2c(O)cc(OC)c(O)c2C1=O`, for which the T/C (dose: 2.5 mg/kg/injection, schedule: Q01DX009 (ip), vehicle: saline with Tween-80) is 104 % of control and the T/C (dose: 5.0 mg/kg/injection, schedule: Q01DX009 (ip), vehicle: saline with Tween-80) is 113 % of control.

With `Cc1ccc2ccccc2c1Cc1c(C=O)[nH]c(=S)[nH]c1=O`, the T/C reads like this: under setting [1], 104 % of control; under setting [9], 122 % of control.

Take `CC1=CC23C(=O)[C@@H](C=C(COC(=O)c4ccccc4)[C@@H](O)[C@]2(O)[C@H]1OC(=O)c1ccccc1)[C@H]1[C@@H](C[C@H]3C)C1(C)C`: the T/C (dose: 7.0 micrograms/kg/injection, schedule: Q01DX009 (ip), vehicle: saline with Tween-80) is 197 % of control; the T/C (dose: 8.0 micrograms/kg/injection, schedule: Q01DX009 (ip), vehicle: saline + alcohol) is 110 % of control; the T/C (dose: 11.0 micrograms/kg/injection, schedule: Q01DX009 (ip), vehicle: saline with Tween-80) was 107 % of control; the T/C (dose: 13.0 micrograms/kg/injection, schedule: Q01DX009 (ip), vehicle: saline + alcohol) is 108 % of control; the T/C (dose: 19.0 micrograms/kg/injection, schedule: Q01DX009 (ip), vehicle: saline with Tween-80) is 113 % of control; the T/C (dose: 21.0 micrograms/kg/injection, schedule: Q01DX009 (ip), vehicle: saline + alcohol) was 110 % of control. For the same compound, the T/C is 113 % of control (dose: 31.0 micrograms/kg/injection, schedule: Q01DX009 (ip), vehicle: saline with Tween-80); 110 % of control (dose: 35.0 micrograms/kg/injection, schedule: Q01DX009 (ip), vehicle: saline + alcohol); 124 % of control (dose: 52.0 micrograms/kg/injection, schedule: Q01DX009 (ip), vehicle: saline with Tween-80); 107 % of control (dose: 59.0 micrograms/kg/injection, schedule: Q01DX009 (ip), vehicle: saline + alcohol); 109 % of control (dose: 86.0 micrograms/kg/injection, schedule: Q01DX009 (ip), vehicle: saline with Tween-80); 100 % of control (dose: 98.0 micrograms/kg/injection, schedule: Q01DX009 (ip), vehicle: saline + alcohol). The T/C is, setting by setting: (dose: 144.0 micrograms/kg/injection, schedule: Q01DX009 (ip), vehicle: saline with Tween-80) 113 % of control; (dose: 240.0 micrograms/kg/injection, schedule: Q01DX009 (ip), vehicle: saline with Tween-80) 157 % of control.

On to `COc1cc(Cc2cc(OC)c(O)c(OC)c2)cc(OC)c1O`, for which the T/C runs as follows: under setting [6], 95 % of control; under setting [7], 100 % of control; under setting [8], 100 % of control.

As for `CC(=O)NC1CCCC(O)C1` (centres undefined), the T/C was 90 % of control (dose: 100.0 mg/kg/injection, schedule: Q01DX009 (ip), vehicle: saline); 100 % of control (dose: 100.0 mg/kg/injection, schedule: Q04DX003 (ip), vehicle: saline); 95 % of control (dose: 200.0 mg/kg/injection, schedule: Q01DX009 (ip), vehicle: saline); 113 % of control (dose: 200.0 mg/kg/injection, schedule: Q04DX003 (ip), vehicle: saline); 100 % of control (dose: 400.0 mg/kg/injection, schedule: Q01DX009 (ip), vehicle: saline); 104 % of control (dose: 400.0 mg/kg/injection, schedule: Q04DX003 (ip), vehicle: saline).

For the compound `COc1cccc2c1C(=O)c1c(O)c3c(c(O)c1C2=O)C[C@@](O)(C(=O)CO)C[C@@H]3OC1CC(NC(=O)CN)C(O)C(C)O1` (some centres undefined), the T/C (dose: 1.56 mg/kg/injection, schedule: Q01DX009 (ip), vehicle: other) was 108 % of control; the T/C (dose: 3.13 mg/kg/injection, schedule: Q01DX009 (ip), vehicle: other) is 110 % of control; the T/C (dose: 6.25 mg/kg/injection, schedule: Q01DX009 (ip), vehicle: other) is 105 % of control; the T/C (dose: 12.5 mg/kg/injection, schedule: Q01DX009 (ip), vehicle: other) is 99 % of control; the T/C (dose: 25.0 mg/kg/injection, schedule: Q01DX009 (ip), vehicle: other) was 114 % of control.

On to `CC/C(=C(\CC)c1ccc(OC)cc1)c1ccc(O)cc1`, for which the T/C (dose: 100.0 mg/kg/injection, schedule: Q01DX009 (ip), vehicle: saline sonified) is 105 % of control; the T/C under setting [1] was 109 % of control; the T/C (dose: 200.0 mg/kg/injection, schedule: Q01DX009 (ip), vehicle: saline sonified) was 110 % of control; the T/C under setting [9] is 104 % of control; the T/C (dose: 400.0 mg/kg/injection, schedule: Q01DX009 (ip), vehicle: saline sonified) was 115 % of control; the T/C under setting [10] is 95 % of control.

In the case of `CN1CCC(C(c2ccccc2)c2ccccc2)C1` (centres undefined), where the note is “dose: 50.0 mg/kg/injection, schedule: Q01DX009 (ip), vehicle: Klucel (hydroxypropylcellulose) (HPC)”, the T/C is 109 % of control.

For the compound `O=C1/C(=C\c2ccco2)SC(=S)N1c1ccccc1`, the T/C runs as follows: (dose: 10.0 mg/kg/injection, schedule: Q01DX009 (ip), vehicle: saline with Tween-80) 96 % of control; (dose: 20.0 mg/kg/injection, schedule: Q01DX009 (ip), vehicle: saline with Tween-80) 89 % of control; (dose: 40.0 mg/kg/injection, schedule: Q01DX009 (ip), vehicle: saline with Tween-80) 98 % of control.

For `CC1(C)O[Se](=O)OC1(C)C`, the T/C (dose: 6.25 mg/kg/injection, schedule: Q04DX003 (ip), vehicle: saline) is 100 % of control.

Regarding `c1ccc2c3c(ccc2c1)OCCOCCOc1ccc2ccccc2c1-3`, the T/C is 86 % of control under setting [2], 88 % of control under setting [3] and 92 % of control under setting [4].

`O=C(O)C1C=CC(C(=O)O)CC1` (centres undefined): the T/C under setting [1] is 95 % of control, the T/C under setting [9] was 93 % of control and the T/C under setting [10] was 93 % of control.

Regarding `NS(=O)(=O)O`, the T/C reads like this: under setting [5], 91 % of control; (dose: 25.0 mg/kg/injection, schedule: Q01DX009 (ip), vehicle: saline) 87 % of control.
